In paper PMC6522510 (Nature Communications, 2019):
Where two headings read alike, the source gives them in different places.

Assays:
Parameters in all cases: species or system AML cell lines (8); Primary HTS, single concentration about 10 uM, Cell Titer Glo viability; log10 luminescence, per cent inhibition relative to cycloheximide control
Details in all cases: 72 h, inhibitor
[1] = test system: CHRF288-11
[2] = test system: CMK
[3] = test system: CMS
[4] = test system: M07e
[5] = test system: ML-2
[6] = test system: MOLM-13
[7] = test system: MV4-11
[8] = test system: U937
[9] = relative to cycloheximide control, log10 luminescence

Compound	CHRF288-11 %inh [1, 9] [%]	CMK %inh [2, 9] [%]	CMS %inh [3, 9] [%]	M07e %inh [4, 9] [%]	ML-2 %inh [5, 9] [%]	MOLM-13 %inh [6, 9] [%]	MV4-11 %inh [7, 9] [%]	U937 %inh [8, 9] [%]	CHRF288-11 %inh ([1]; 10 µM) [%]	CMK %inh ([2]; 10 µM) [%]	CMS %inh ([3]; 10 µM) [%]	M07e %inh ([4]; 10 µM) [%]	ML-2 %inh ([5]; 10 µM) [%]	MOLM-13 %inh ([6]; 10 µM) [%]	MV4-11 %inh ([7]; 10 µM) [%]	U937 %inh ([8]; 10 µM) [%]
COC(=O)Nc1nc2ccc(Oc3ccc(NC(=O)Nc4cc(C(F)(F)F)ccc4F)cc3)cc2s1 [SJ000573286-1, T277/77/2]	2.804	4.078	-2.124	9.62	3.773	27.47	23.01	-3.236								
Nc1nc(-c2cccc(Cl)c2)c(-c2ccc3ncccc3n2)s1 [SJ000573287-1, FTTA/246/163/2]	1.906	-4.613	0.5039	1.682	2.244	-0.7857	-3.034	-2.159								
Cc1nnc(-c2cccc(-c3ccc(C(=O)NCC4CC4)cc3)c2)o1 [SJ000573288-1, N5058-19-3]	-4.251	3.578	-1.146	0.8786	2.007	2.072	-0.4477	-1.478								
CN(C)CCOc1ccc(-c2nc(-c3ccncc3)c(-c3ccc4c(c3)CC/C4=N\O)[nH]2)cc1 [SJ000573289-1, MM206071-092A1 | SB590885]	9.844	-1.288	1.753	3.647	-1.225	11.69	2.418	1.485								
COc1ccc(COc2ccc(Cc3cnc(N)nc3N)cc2OC)cc1 [SJ000573290-1, U22490/41/5 | GW2580 | CFMS RECEPTOR TYROSINE KINASE INHIBITOR | CSF-1 RECEPTOR INHIBITOR | GW-2580 | GW2580]	2.429	9.776	-2.221	0.1702	2.578	5.043	1.548	5.457								
CCS(=O)(=O)c1ccc(OC)c(Nc2ncc(-c3ccccc3Cl)o2)c1 [SJ000573291-1, U15747/47/1]	-4.64	-1.56	-1.399	-1.838	-1.239	-0.8597	15.16	1.267								
COc1cc2ncn(-c3cc(OCc4ccccc4C(F)(F)F)c(C(C)=O)s3)c2cc1OC [SJ000573292-1, U22436/134/1]	-3.203	-1.073	0.7881	-3.084	-2.426	-1.507	-4.181	-1.322								
Cc1cccc(-c2n[nH]cc2-c2ccc3ncccc3n2)n1 [SJ000573293-1, FFJG/252/112/1 | REPSOX]	4.75	1.842	2.179	-1.053	2.229	-2.402	1.439	6.099								
Nc1nc(-c2ccc3c(c2)C(=Cc2cc(Br)c(O)c(Br)c2)C(=O)N3)cs1 [SJ000573294-1, U11298/118/1]	13.11	-5.127	1.564	2.045	0.7137	-2.176	-2.964	-1.497								
COc1cc2ncn(-c3cc(OCc4ccccc4S(C)(=O)=O)c(C#N)s3)c2cc1OC [SJ000573295-1, U24235/171/40 | IKK-3 INHIBITOR IX | CAY10576]	3.431	-4.233	-0.09194	3.197	2.593	-1.258	0.8968	1.496								
COc1ccc(-c2oc3ncnc(N)c3c2-c2ccc(NC(=O)Nc3cc(C(F)(F)F)ccc3F)cc2)cc1 [SJ000573296-1, T299/60/1]	-2.7	1.218	0.08626	-1.472	0.8185	23.97	5.923	-2.62								
CCCN1CCC(Oc2cc(Nc3nc(Nc4cccc(F)c4C(N)=O)c4cc[nH]c4n3)c(OC)cc2Cl)CC1 [SJ000573297-1, U23772/200/1]	4.97	2.381	-0.1818	3.715	2.245	2.944	-2.06	0.7849								
COc1cc(N2CCN(C(C)C)CC2)ccc1Nc1nc(Nc2ccc(F)cc2C(N)=O)c2cc[nH]c2n1 [SJ000573298-1, U22490/47/4]	127	61.83	47.53	44.9	34.55	113.4	68.67	43.61								
COC(=O)Nc1nc2cc(Oc3cccc(NC(=O)Nc4cc(C(F)(F)F)ccc4F)c3)ccc2[nH]1 [SJ000573299-1, T261/2/3]	-6.517	4.931	-1.053	-5.089	-3.985	2.873	1.052	-3.556								
COc1cc(N2CCN(C(C)C)CC2)ccc1Nc1nc(Nc2cccc3ncccc23)c2cc[nH]c2n1 [SJ000573300-1, U24088/12/1]	47.23	79.69	0.4893	3.774	8.95	33.94	11.79	16.14								
COc1cc(N2CCN(C(C)C)CC2)ccc1Nc1nc(Nc2ccc(F)cc2C(=O)NC[C@@H](O)CO)c2cc[nH]c2n1 [SJ000573301-1, U23662/84/1]	7.394	-2.061	-0.165	18.85	23.23	61.15	49.16	47.45								
COc1cc(N2CCN(C(C)C)CC2)ccc1Nc1nc(Nc2cccc(F)c2C(=O)O)c2cc[nH]c2n1 [SJ000573302-1, U24644/141/1]	2.245	-4.539	-1.742	1.407	1.383	-2.196	-1.676	-3.308								
NS(=O)(=O)c1ccc(Nc2ncc(-c3ccccc3)o2)cc1 [SJ000573303-1, U14961/32/1]									3.992	30.97	6.689	5.73	4.386	74.24	64.71	6.622
CN1CCN(CCCNc2nc3ccc(Oc4ccc(NC(=O)Nc5cc(C(F)(F)F)ccc5F)cc4)cc3[nH]2)CC1 [SJ000573304-1, T278/35/2]	-0.361	2.938	2.836	5.692	1.341	79.64	57.09	2.101								
COc1cccc(COc2cc(-n3cnc4ccccc43)sc2C(N)=O)c1 [SJ000573305-1, U17845/44/3]	7.099	1.494	2.005	2.73	3.033	4.701	0.1016	5.488								
CNC(=O)c1sc(-n2cnc3cc(OC)c(OC)cc32)cc1OCc1ccccc1C(F)(F)F [SJ000573306-1, U22436/130/1]	8.101	19.06	0.3871	-3.893	3.023	15.4	7.836	5.347								
COc1cc2ncn(-c3cc(OCc4ccccc4C(F)(F)F)c(C(=O)N(C)C)s3)c2cc1OC [SJ000573307-1, U22436/129/1]	2.061	4.289	-4.162	-4.272	-1.707	15.46	8.508	7.074								
